In brackets after ≈: the same amount, converted by molar mass. Values belong to the compound of their own block, whether it stands above or below them.
Assays:
[1] = Equilibrium solubility in pH 6.8 potassium phosphate buffer incubated for 16 hrs by shake flask method; format: physicochemical
Complement C5 = Complement C5 (Homo sapiens, UniProt P01031); assay: Inhibition of C5 complement protein in 2% human serum incubated for 15 mins; format: cell-free
[2] = Reduction of intraocular pressure in human at 0.1% administered topically to the eye and measured at 4 hr post-instillation during phase 1 clinical trial by tonometry; format: functional
[3] = Reduction of intraocular pressure in human at 0.4%, OU administered twice daily for 8 weeks cotreated-with-latanoprost and measured every 2 weeks at 2 hrs post-instillation by tonometry; format: functional
[4] = Reduction of intraocular pressure in human at 0.4%, OU administered twice daily for 8 weeks cotreated with timolol and measured every 2 weeks at 2 hrs post-instillation by tonometry; format: functional
[5] = Reduction of intraocular pressure in human at 0.4%, OU administered twice daily for 8 weeks cotreated with timolol and measured every 2 weeks by tonometry; format: functional
[6] = Reduction of intraocular pressure in human at 0.4%, OU administered twice daily for 52 weeks and measured every 2 weeks for first month and then every 4 weeks by tonometry; format: functional
[7] = Reduction of intraocular pressure in human at 0.4%, OU administered twice daily for 52 weeks and measured every 2 weeks for first month and then every 4 weeks at 2 hr post-instillation by tonometry; format: functional
[8] = Reduction of intraocular pressure in human at 0.4%, OU administered twice daily for 8 weeks and measured every 4 weeks at 8 hrs post instillation during phase 2 clinical trial by tonometry; format: functional
[9] = Reduction of intraocular pressure in human at 0.2%, OU administered twice daily for 8 weeks and measured every 4 weeks at 8 hrs post instillation during phase 2 clinical trial by tonometry; format: functional
[10] = Reduction of intraocular pressure in human at 0.1%, OU administered twice daily for 8 weeks and measured every 4 weeks at 8 hrs post instillation during phase 2 clinical trial by tonometry; format: functional
Complement factor D [11] = target: T1, Complement factor D (Homo sapiens, UniProt P00746); assay: Inhibition of CFD in 50% human whole blood assessed as reduction in alternate complement pathway-mediated MAC formation pre-incubated for 15 mins followed by zymosan suspension addition and measured after 40 mins by ELISA; format: tissue-based
[12] = Solubility of compound by NMR analysis; format: physicochemical
[13] = Inhibition of N-terminal His-tagged human KLK7 (37 to 253 residues) Y180R mutant expressed in Escherichia coli BL21(DE3) using Ac-Glu-Phe-Lys-Pro-Ile-Leu-Trp-Arg-Leu-Gly-Cys(PT14)-Glu-NH2 as substrate preincubated for 1 hr followed by substrate addition by fluorescence-lifetime assay
Complement factor D [14] = target: T1, Complement factor D; assay: Binding affinity to human CFD at 100 uM by WaterLOGSY NMR analysis
[15] = Half life in cynomolgus monkey cornea by HPLC analysis; format: ADME, tissue-based, Macaca fascicularis; settings: in vivo
[16] = Half life in Dutch Belted rabbit cornea by HPLC analysis; format: ADME, tissue-based, Oryctolagus cuniculus; settings: in vivo
[17] = Half life in pig cornea by HPLC analysis; format: ADME, tissue-based, Sus scrofa; settings: in vivo
[18] = Half life in Beagle dog cornea by HPLC analysis; format: ADME, tissue-based, Canis lupus familiaris; settings: in vivo
[19] = Half life in human cornea by HPLC analysis; format: ADME, tissue-based
Complement factor D [20] = target: T1, Complement factor D; assay: Inhibition of recombinant human CFD catalytic domain (G24 to A253 residues) expressed in Escherichia coli (Rosetta) using Z-Lys-thiobenzyl and 2,4-dinitrobenzenesulfonyl-2,7-[…]-fluorecein as substrate preincubated for 1 hr followed by substrate addition by spectrofluorimetric method
Complement factor D [21] = target: T1, Complement factor D; assay: Inhibition of CFD in human RBC model of anti-CD55/anti-CD59-induced paroxysmal nocturnal hemoglobinuria assessed as reduction in complement fragment C3 deposition by FACS analysis; format: tissue-based
[22] = target: T2, Nitric oxide synthase, inducible (Mus musculus, UniProt P29477); assay: Inhibition of LPS/IFN-gamma induced NO-dependent iNOS activity in mouse RAW 264.7 cells incubated for 16 hrs by Griess reagent based assay; format: cell-based, RAW264.7
T2 sequence (P29477 whole entry): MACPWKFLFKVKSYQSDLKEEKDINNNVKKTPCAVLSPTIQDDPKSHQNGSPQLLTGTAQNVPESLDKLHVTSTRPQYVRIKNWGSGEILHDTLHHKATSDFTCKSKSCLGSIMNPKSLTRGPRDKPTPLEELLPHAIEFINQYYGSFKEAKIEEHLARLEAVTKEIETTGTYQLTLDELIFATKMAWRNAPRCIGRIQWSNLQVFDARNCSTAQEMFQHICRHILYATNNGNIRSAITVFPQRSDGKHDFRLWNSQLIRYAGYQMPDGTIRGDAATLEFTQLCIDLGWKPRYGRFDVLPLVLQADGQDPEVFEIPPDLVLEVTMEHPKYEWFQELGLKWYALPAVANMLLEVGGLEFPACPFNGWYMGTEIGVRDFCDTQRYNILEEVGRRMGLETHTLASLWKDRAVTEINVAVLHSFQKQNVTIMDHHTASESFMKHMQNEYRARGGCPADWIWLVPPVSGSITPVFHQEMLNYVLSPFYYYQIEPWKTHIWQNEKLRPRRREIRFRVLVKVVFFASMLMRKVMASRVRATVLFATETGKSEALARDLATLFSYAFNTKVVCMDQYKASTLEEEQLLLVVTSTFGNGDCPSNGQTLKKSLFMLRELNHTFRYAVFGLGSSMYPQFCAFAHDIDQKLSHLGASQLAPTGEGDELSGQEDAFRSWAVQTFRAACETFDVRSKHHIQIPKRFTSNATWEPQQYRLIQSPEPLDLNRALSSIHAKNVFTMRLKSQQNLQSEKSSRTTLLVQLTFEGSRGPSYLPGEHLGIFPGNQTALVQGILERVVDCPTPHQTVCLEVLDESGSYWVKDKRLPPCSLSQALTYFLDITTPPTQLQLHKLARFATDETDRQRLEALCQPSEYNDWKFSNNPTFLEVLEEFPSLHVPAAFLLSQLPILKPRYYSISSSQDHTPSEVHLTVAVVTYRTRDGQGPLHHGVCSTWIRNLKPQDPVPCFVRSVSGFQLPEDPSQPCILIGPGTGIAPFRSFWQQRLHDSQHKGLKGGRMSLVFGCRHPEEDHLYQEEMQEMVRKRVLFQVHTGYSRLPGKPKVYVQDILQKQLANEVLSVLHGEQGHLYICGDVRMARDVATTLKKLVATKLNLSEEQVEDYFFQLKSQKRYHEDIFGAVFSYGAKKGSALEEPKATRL

[23] = Reduction of intraocular pressure in human at 0.024%, OU administered once daily and measured at 8 am time point after 3 months by tonometry; format: functional; settings: 2190 h
[24] = Reduction of intraocular pressure in human at 0.024% administered topically to eye once daily and measured after 14 day during phase2 clinical trial by tonometry; format: functional
[25] = Reduction of intraocular pressure in human at 0.024%, OU administered once daily and measured at 4 weeks by tonometry; format: functional
[26] = Reduction of intraocular pressure in human at 0.024%, OU administered once daily and measured at 8 am time point after 2 weeks by tonometry; format: functional
[27] = Reduction of intraocular pressure in human at 0.024% administered topically to eye once daily for 4 weeks and measured for 8 hrs during diurnal/wake period by tonometry; format: functional
[28] = Reduction of intraocular pressure in human at 0.024%, OU administered once daily and measured at 12 pm time point after 2 weeks by tonometry; format: functional
[29] = Reduction of intraocular pressure in human at 0.024%, OU administered once daily and measured at 1 year by tonometry; format: functional; settings: 8760 h
[30] = Reduction of intraocular pressure in human at 0.024% administered topically to eye once daily and measured after 28 day during phase2 clinical trial by tonometry; format: functional
[31] = Reduction of intraocular pressure in human at 0.024%, OU administered once daily and measured at 8 am time point after 6 weeks by tonometry; format: functional
[32] = Reduction of intraocular pressure in human at 0.024%, OU administered to fellow-eye once daily for 14 days and measured for 24 hrs on day 14 by tonometry; format: functional; settings: time 14 day
[33] = Reduction of intraocular pressure in human at 0.024%, OU administered once daily and measured at 12 pm time point after 3 months by tonometry; format: functional; settings: 2190 h
[34] = Reduction of intraocular pressure in human at 0.024%, OU administered once daily and measured at 4 pm time point after 6 weeks by tonometry; format: functional
[35] = Reduction of intraocular pressure in human at 0.024%, OU administered once daily for 14 days and measured for 24 hrs on day 14 by tonometry; format: functional; settings: time 14 day
[36] = Reduction of intraocular pressure in human at 0.024%, OU administered once daily and measured at 4 pm time point after 3 months by tonometry; format: functional; settings: 2190 h
[37] = Reduction of intraocular pressure in human at 0.024%, OU administered once daily and measured at 4 pm time point after 2 weeks by tonometry; format: functional
[38] = Reduction of intraocular pressure in human at 0.024% administered topically to eye once daily for 4 weeks and measured for 8 hrs during nocturnal/sleep period by tonometry; format: functional
[39] = Reduction of intraocular pressure in human at 0.024% administered topically to eye once daily and measured after 7 day during phase2 clinical trial by tonometry; format: functional
[40] = Reduction of intraocular pressure in human at 0.024%, OU administered once daily and measured at 12 pm time point after 6 weeks by tonometry; format: functional
Rattus norvegicus [41] = assay: Neuroprotective activity in Wistar rat model of streptozotocin-induced diabetic retinopathy assessed as decrease in retinal ganglion cells at 5 mg/kg, po dosed until 2 months starting 7 days prior to streptozotocin injection (reference value: 44%); format: functional; set-up: scale not given: the % may be the effect or the level left; settings: 1460 h
Rattus norvegicus [42] = assay: Neuroprotective activity in Wistar rat model of streptozotocin-induced diabetic retinopathy assessed as decrease in retinal ganglion cells at 1 mg/kg, po dosed until 2 months starting 7 days prior to streptozotocin injection (reference value: 44%); format: functional; set-up: scale not given: the % may be the effect or the level left; settings: 1460 h

T1 sequence (P00746 whole entry): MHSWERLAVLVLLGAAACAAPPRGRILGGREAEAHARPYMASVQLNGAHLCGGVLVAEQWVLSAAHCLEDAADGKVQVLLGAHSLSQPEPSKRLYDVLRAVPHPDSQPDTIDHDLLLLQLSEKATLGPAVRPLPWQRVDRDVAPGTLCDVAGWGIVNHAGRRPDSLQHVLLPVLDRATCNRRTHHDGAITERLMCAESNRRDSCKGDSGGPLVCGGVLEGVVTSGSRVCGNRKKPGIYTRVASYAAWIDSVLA
Chain of Complement C5 (P01031 19-673 limits assumed): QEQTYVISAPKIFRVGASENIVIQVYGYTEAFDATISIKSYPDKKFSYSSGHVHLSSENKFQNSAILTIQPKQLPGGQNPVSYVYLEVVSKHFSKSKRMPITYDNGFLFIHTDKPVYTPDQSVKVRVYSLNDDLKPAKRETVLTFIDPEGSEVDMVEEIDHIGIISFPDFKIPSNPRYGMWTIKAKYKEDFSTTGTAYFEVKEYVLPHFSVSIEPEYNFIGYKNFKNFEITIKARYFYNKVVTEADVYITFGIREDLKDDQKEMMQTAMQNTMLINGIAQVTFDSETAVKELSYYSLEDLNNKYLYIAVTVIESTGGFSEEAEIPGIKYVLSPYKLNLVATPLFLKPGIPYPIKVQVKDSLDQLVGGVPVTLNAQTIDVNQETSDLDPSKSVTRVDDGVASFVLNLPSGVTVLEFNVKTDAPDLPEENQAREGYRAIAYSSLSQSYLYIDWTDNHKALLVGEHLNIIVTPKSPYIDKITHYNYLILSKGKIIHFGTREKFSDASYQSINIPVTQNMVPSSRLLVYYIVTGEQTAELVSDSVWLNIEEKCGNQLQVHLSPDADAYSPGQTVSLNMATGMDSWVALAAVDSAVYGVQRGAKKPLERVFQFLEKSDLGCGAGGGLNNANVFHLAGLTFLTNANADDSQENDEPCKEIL
Chain of Complement C5 (P01031 678-1676 limits assumed): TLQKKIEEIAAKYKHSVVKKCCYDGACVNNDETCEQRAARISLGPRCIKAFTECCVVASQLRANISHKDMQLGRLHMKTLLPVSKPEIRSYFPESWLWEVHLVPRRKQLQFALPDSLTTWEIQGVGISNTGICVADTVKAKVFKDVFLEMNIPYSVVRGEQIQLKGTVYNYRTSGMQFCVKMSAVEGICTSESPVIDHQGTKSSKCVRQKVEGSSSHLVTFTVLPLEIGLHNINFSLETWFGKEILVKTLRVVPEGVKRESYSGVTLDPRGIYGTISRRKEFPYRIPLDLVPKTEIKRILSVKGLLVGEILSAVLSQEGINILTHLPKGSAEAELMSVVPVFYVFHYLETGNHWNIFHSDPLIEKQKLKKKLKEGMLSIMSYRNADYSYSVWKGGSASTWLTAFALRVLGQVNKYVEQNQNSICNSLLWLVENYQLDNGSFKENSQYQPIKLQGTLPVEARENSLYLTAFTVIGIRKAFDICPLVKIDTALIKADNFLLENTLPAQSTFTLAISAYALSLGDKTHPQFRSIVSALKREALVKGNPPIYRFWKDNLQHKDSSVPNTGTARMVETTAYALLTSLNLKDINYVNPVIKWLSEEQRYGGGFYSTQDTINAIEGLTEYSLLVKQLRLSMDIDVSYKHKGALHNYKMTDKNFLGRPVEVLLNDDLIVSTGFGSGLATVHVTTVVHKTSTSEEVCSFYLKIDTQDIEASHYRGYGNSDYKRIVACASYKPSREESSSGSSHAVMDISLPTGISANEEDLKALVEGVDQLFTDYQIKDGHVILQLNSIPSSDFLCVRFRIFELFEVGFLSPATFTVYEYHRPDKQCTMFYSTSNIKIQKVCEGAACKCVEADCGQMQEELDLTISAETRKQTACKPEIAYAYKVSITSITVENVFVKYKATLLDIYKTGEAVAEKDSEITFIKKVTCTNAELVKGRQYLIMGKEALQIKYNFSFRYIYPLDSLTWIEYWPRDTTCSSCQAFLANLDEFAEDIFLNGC

solubility thermodynamic at 16 h [1]: < 4 µM | IC50 (Complement C5): 0.21 µM
SMILES: CCCCCCOc1cc(NC(=O)N[C@@H](C)c2ccccc2)ccc1OC

solubility thermodynamic at 16 h [1]: < 4 µM | IC50 (Complement C5): 0.44 µM
SMILES: COc1ccc(NC(=O)N[C@@H](C)c2ccccc2)cc1OCCCC(C)C

SMILES: CC(N)c1ccc(C(=O)Nc2ccnc3[nH]ccc23)cc1 (configuration not stated)
Activity [2]: 3 mmHg

SMILES: C[C@H]1CNCCCN1S(=O)(=O)c1cccc2cncc(F)c12
Activity [3]: 1.4 mmHg | Activity [4]: 1.6 mmHg | Activity [5]: 0.9 mmHg | Activity [6]: -2.6 mmHg | Activity [7]: -3.7 mmHg | Activity [8]: -3.1 mmHg | Activity [9]: -2.7 mmHg | Activity [10]: -3.2 mmHg

IC50 (Complement factor D [11]): 0.05 µM
SMILES: NC(=O)c1nn(CC(=O)N2[C@@H]3C[C@@H]3C[C@H]2C(=O)Nc2cccc(Br)n2)c2ncccc12

solubility [12]: 2000 µM (≈ 621 µg/mL)
SMILES: NC(=O)c1cc2cc(OCc3cccc(C(=O)O)c3)ccc2[nH]1

IC50 [13]: 9 µM
SMILES: COC(=O)c1ccccc1CNC(=O)N1CCC[C@H]1C(=O)Nc1cccc(OC(F)(F)F)c1

Kd (Complement factor D [14]): > 30 µM | solubility [12]: 30 µM (≈ 7.99 µg/mL)
SMILES: NC(=O)c1cc2cc(OCc3ccccc3)ccc2[nH]1

t1/2 [15]: 1.82 h | t1/2 [16]: 2.33 h | t1/2 [17]: 2.6 h | t1/2 [18]: 1.63 h | t1/2 [19]: 2.92 h
SMILES: Cc1ccc(C(=O)OCc2ccc([C@@H](CN)C(=O)Nc3ccc4cnccc4c3)cc2)c(C)c1

IC50 [13]: 0.7 µM | IC50 (Complement factor D [20]): > 30 µM
SMILES: COc1ccc(CCNC(=O)[C@@H]2CCCN2C(=O)NCc2cccc3ccccc23)cc1

IC50 (Complement factor D [11]): 0.14 µM | IC50 (Complement factor D [21]): 0.07 µM
SMILES: C[C@H](NC(=O)[C@@H]1C[C@H]2C[C@H]2N1C(=O)Cn1nc(C(N)=O)c2cccnc21)c1cccc(Cl)c1F

solubility thermodynamic at 16 h [1]: 728 µM (≈ 302 µg/mL) | IC50 (Complement C5): 0.62 µM
SMILES: COc1cc(C(=O)O)c(NC(=O)N[C@@H](C)c2ccccc2)cc1OCCCC(C)C

IC50 [22]: 55 µM
SMILES: O=C(CCC/C=C\C[C@@H]1[C@@H](CC[C@@H](O)CCc2ccccc2)[C@H](O)C[C@@H]1O)OC(CO[N+](=O)[O-])CO[N+](=O)[O-]

solubility thermodynamic at 16 h [1]: ≤ 4 µM | IC50 (Complement C5): ≤ 0.005 µM
SMILES: COc1ccc(NC(=O)N[C@@H](C)c2ccccc2OC)cc1OCCCC(C)C

SMILES: O=C(CCC/C=C\C[C@@H]1[C@@H](CC[C@H](O)CCc2ccccc2)[C@H](O)C[C@@H]1O)OCCCCO[N+](=O)[O-]
Activity [23]: 0.9 mmHg | Activity [24]: 8.9 mmHg | Activity [25]: 4.3 mmHg | Activity [26]: 0.4 mmHg | Activity [27]: 1.1 mmHg | Activity [28]: 0.8 mmHg | Activity [29]: 5.3 mmHg | Activity [30]: 9 mmHg | Activity [31]: 0.9 mmHg | Activity [32]: 3.5 mmHg | Activity [33]: 1.3 mmHg | Activity [34]: 1 mmHg | Activity [35]: 3.6 mmHg | Activity [36]: 1.3 mmHg | Activity [37]: 0.7 mmHg | Activity [38]: 2.3 mmHg | Activity [39]: 8.3 mmHg | Activity [40]: 0.8 mmHg

SMILES: OCCc1ccc(O)c(O)c1 [HYDROXYTYROSOL]
Activity (Rattus norvegicus [41]): 9% | Activity (Rattus norvegicus [42]): 34%

— ChEMBL document CHEMBL4665679, “Ocular Disease Therapeutics: Design and Delivery of Drugs for Diseases of the Eye” (J Med Chem, 2020)
